Publication PMC12584752, “Covalent fragment screening to inhibit the E3 ligase activity of bacterial NEL enzymes SspH1 and SspH2” (RSC Chemical Biology, 2025)

Molecular target: SspH1 (161–700) (Salmonella typhimurium, UniProt D0ZVG2)
Assay: Round 1 intact protein LC-MS covalent fragment labelling screen and dilution series
Type: binding
Set-up: Recombinant IpaH9.8 (21–545) and SspH1 (161–700) were incubated at 0.5 μM; His-tag (N, cleaved yes); made in house; host or cells: E. coli BL21
Details: 24 hours at 4 °C
Experimental: A diverse library of 227 compounds with chloroacetamide warheads, featuring a diversity of molecular weight (162–321 Da) and clog P (−1.4 to 3.4) (Table S1), were screened against Salmonella and Shigella NEL E3 ligases using our intact protein liquid chromatography mass spectrometry (LC-MS) platform as previously described.[39,40] Briefly, recombinant SspH1 (161–700[30]) and IpaH9.8 (21–545[29]) (Fig. 1A and B) were incubated with 50 μM fragments for 24 hours at 4 °C before analysis by LC-MS (Fig. 1C). Raw counts were deconvoluted and the labelling percentage calculated by detection and comparison of protein and protein-fragment molecular weights.
Fig. 1 Intact protein LCMS screening of covalent fragment library against NEL proteins. (A) Cartoon depicting conserved NEL E3 ligase domains; (B) overlaid structures of SspH1 (blue, PDB 9H6W[30]) and IpaH9.8 (green, PDB 6LOL[29]) aligned on NEL domain; (C) workflow of covalent fragment screening using intact LC-MS; (D) fragment labelling percentages for SspH1 and IpaH9.8 with fragments 1–3 highlighted. Recombinant IpaH9.8 (21–545) and SspH1 (161–700) were incubated at 0.5 μM with 50 μM fragments for 24 hours at 4 °C, before fragment labelling was analysed by intact LC-MS; (E) chemical structures of fragments 1–3.
We next analysed the potency of compounds 4–10 against SspH1. The seven compounds were obtained as purified compounds (Table S2) and screened against SspH1 by intact LC-MS (Fig. 3A) with two-fold serial dilution (100–6.25 μM). To confirm which of the two cysteines in the SspH1 161–700 construct were labelled, we repeated the concentration response experiment with a catalytic cysteine mutant of SspH1 (C492K) (Fig. 3B). The complete abrogation of labelling confirmed that all […] compounds labelled the catalytic cysteine of SspH1.
1 μM IpaH9.8 or SspH1 were incubated with […] fragments for 24 hours at 4 °C, in 25 mM HEPES pH 7.5, 50 mM NaCl buffer. Intact protein LC-MS was performed as previously described.[40] The following deconvolution conditions were used for recombinant proteins studied in this work:
Dilution series experiments were performed as for 1st round screening. 1 μM OTUD4, OTUD5 or 0.5 μM HOIL, UbcH5A, SspH2, SspH1 C492K were incubated with 100–6.25 μM compounds for 24 hours at 4 °C, in 25 mM HEPES pH 7.5, 50 mM NaCl buffer. Intact protein LC-MS was performed as previously described.[40] The following deconvolution conditions were used for recombinant proteins studied in this work: […]

Sequence of SspH1 (161–700) (D0ZVG2 161-700): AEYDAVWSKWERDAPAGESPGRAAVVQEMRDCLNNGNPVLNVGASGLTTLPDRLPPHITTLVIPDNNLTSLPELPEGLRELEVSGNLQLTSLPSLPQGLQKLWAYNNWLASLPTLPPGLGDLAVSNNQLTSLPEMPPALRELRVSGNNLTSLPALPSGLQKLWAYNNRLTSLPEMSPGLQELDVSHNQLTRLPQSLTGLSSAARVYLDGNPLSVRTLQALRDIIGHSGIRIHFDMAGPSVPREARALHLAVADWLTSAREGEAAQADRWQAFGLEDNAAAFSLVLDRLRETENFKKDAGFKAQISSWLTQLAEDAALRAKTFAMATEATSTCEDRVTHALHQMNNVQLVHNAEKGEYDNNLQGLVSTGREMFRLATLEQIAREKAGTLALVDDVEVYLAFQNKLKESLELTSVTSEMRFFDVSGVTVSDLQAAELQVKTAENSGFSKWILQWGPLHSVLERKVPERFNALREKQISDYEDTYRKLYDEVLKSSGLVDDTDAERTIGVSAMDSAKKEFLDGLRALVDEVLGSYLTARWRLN

## Cc1cc(-c2nc3ccccc3n2C2CCN(C(=O)CCl)CC2)cc(C)c1O.Cl [compound 6]
Purified compound at 6.25 μM
  labelling of WT SspH1: > 60%
Purified compound at 12.5 μM
  labelling of WT SspH1: > 80%

## Cl.O=C(CCl)N1CCC(n2c(-c3ccc(C(F)(F)F)cc3)nc3ccccc32)CC1 [compound 7]
Purified compound at 6.25 μM
  labelling of WT SspH1: > 60%
Purified compound at 12.5 μM
  labelling of WT SspH1: > 80%
